Broadly, the IC50 is the concentration that gives 50% inhibition. By Kd is commonly meant the equilibrium constant for the complex coming apart.

Test [1] has as its system Normal prostate epithelial cells. As to the kind of experiment: Viability / apoptosis in normal prostate epithelial cells. It counts as cell-based. Particulars: Epithelial cell. On the procedure:
(§1) The prostate cancer cell lines, LNCaP and PC-3, were purchased from American Type Culture Collection (Manassas, Va.) and maintained in RPMI 1640 medium containing 10% heat-inactivated fetal bovine serum at 37° C. in a humidified incubator containing 5% CO2. The LNCaP-abl cells were a generous gift from Dr. Qianben Wang (The Ohio State University). Normal prostate epithelial cells were purchased from Lonza (Walkersville, Md.) and were cultured in the vendor-recommended defined prostate epithelial cell growth medium. For experiments, LNCaP cells were plated on poly-D-lysine-coated culture flasks at a density of 12,000 cells per cm^2 surface area for 24 hours, followed by treatment with test agents in serum-free RPMI 1640 medium. The α- and γ-tocopherols were purchased from Sigma-Aldrich (St. Louis, Mo.). The tocopherol derivatives, α- and γ-VE5, were synthesized by the inventors.
(§2) LNCaP cells were plated into poly-D-lysine-coated 96-well plates and PC-3 and LNCaP-abl cells into uncoated plates at the density of 5,000 cells per well in the presence of 10% FBS. Normal prostate epithelial cells were plated into uncoated plates at a density of 8,000 cells per well. Exposure to test agents in serum-free medium was initiated 24 hours later. After 24 hours of treatment, cells were incubated with MTT [3-(4,5-dimethylthiazol-2-yl)-2,5-diphenyl-2H-tetrazolium bromide] (TCI America; 0.5 mg/ml, final concentration) for an additional 2 hours. The medium was then removed from each well and replaced with DMSO to dissolve the reduced MTT dye for subsequent colorimetric measurement of absorbance at 595 nm. Cell viabilities are calculated as percentages of that in the corresponding vehicle-treated control group.

The next test deals with LNCaP cells. As to the kind of experiment: MTT viability assay, LNCaP. Conditions: Homo sapiens, 1% FBS-containing or serum-free RPMI 1640 medium for 24 h. Format: cell-based. On the procedure: as §1
as §2, with “Exposure to test agents in serum-free medium was initiated 24 hours later.” left out
For orientation: Tetrazolium assays rely on reduction of a dye to a coloured formazan, in cell work by metabolically active cells.

Test [2] concerns the target T1, PH domain of PDK1 (GST-PH domain fusion protein) (Homo sapiens, UniProt O15530).
T1 construct: made in house
T1 sequence (O15530 459-550 limits assumed): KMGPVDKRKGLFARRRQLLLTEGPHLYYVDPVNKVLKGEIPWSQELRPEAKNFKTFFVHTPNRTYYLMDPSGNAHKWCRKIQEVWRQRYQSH
As to the kind of experiment: Surface plasmon resonance binding, PDK1 PH domain. Conditions: SPR; means (n = 3) ± SD; read-out: Kd, PDK1 PH domain. An excerpt:
(§3) The cDNA fragments corresponding to the putative PH domain sequences of PHLPP1 (+115 to +372), PDK1 (+1225 to +1671), Akt1 (+1 to +447) and ILK (+538 to +646) were PCR-amplified using the plasmids pcDNA-HA-PHLPP1, pWZL-Neo-Myr-FLAG-PDPK1, pcDNA-HA-PKB-T308D-S473D, and pCMV-SPORT-ILK (Addgene) as templates. The PCR products were then cloned into EcoRI/XhoI sites of the pGEX-4T1 expression vector (GE Healthcare Life Sciences) to generate four constructs (pGEX-4T1-PHLPP1, pGEX-4T1-PDPK1, pGEX-4T1-AKT1, pGEX-4T1-ILK) for the expression of GST-PH domain fusion proteins. The mutated Akt1 Y38G PH domain was generated from pGEX-4T1-AKT1 by site-directed mutagenesis using the QuikChange II XL Site-Directed Mutagenesis Kit (Agilent Technologies). The expression and purification of GST-PH domain fusion proteins were performed essentially as described previously. Thomas et al., Curr Biol 12, 1256 (2002). The purified PH domains were analyzed by SDS-PAGE using an overloaded gel with purities were estimated to be >95% using ImageJ software.
(§4) Binding experiments were performed using a Biacore T100 system (GE Healthcare, Piscataway, N.J.). The GST-PH domain fusion proteins were immobilized on a CM5 S Sensorchip using Biacore's Amine Coupling Kit to a level of 17,000 response units. VE5 compounds and di-octanoyl PIP3 at concentrations ranging from 0.1 to 100 μM and 1 to 20 μm, respectively, were injected at a high flow rate (30 μL/min) over the biosensor surface for binding analyses. DMSO concentrations in all samples and running buffer were 1% (v/v) or less. Data were analyzed using Biacore T100 Evaluation Software.
A general note: SPR reads the build-up and loss of mass on a sensor chip optically.

The target in test [3] is T2, PH domain of PHLPP1 (GST-PH domain fusion protein) (Homo sapiens, UniProt O60346).
T2 construct: made in house
T2 sequence (O60346 536-636 limits assumed): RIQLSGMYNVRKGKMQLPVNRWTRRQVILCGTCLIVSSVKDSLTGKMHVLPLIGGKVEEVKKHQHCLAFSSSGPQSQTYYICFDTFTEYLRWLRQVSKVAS
In words: Surface plasmon resonance binding, PHLPP1 PH domain. Conditions: SPR; means (n = 3) ± SD; read-out: Kd, PHLPP1 PH domain.
Text: as §3, §4

Test [4] deals with T3, PH domain of ILK (GST-PH domain fusion protein) (Homo sapiens, UniProt Q13418).
T3 construct: made in house
T3 sequence (Q13418 180-212 limits assumed): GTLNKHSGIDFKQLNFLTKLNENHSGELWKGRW
In words: Surface plasmon resonance binding, ILK PH domain. Conditions: SPR; means (n = 3) ± SD; read-out: Kd, ILK PH domain.
Text: as §3, §4

Test [5] concerns Akt membrane localization in LNCaP cells. In words: Immunocytochemistry, membrane localization of Akt. Format: cell-based. Particulars: DMSO-treated cells 38.0±5.7%. How it is done: After 24 hours treatment, LNCaP cells were fixed in 4% formaldehyde for 20 min before permeabilization with 0.1% Triton X-100 in PBS at room temperature for 1 hour followed by incubation in 1% FBS (in PBS) for 1 hour. Cells were stained for endogenous PH domain-containing proteins (Akt, PHLPP, PDK-1, ILK, BTK) by incubation with specific antibodies (1:100), followed by incubation with the Alexa Fluor 555-conjugated goat anti-rabbit or Alexa Fluor 488-conjugated goat anti-mouse IgG (1:200) at room temperature for 2 hours. Both primary and secondary antibodies were diluted in incubation buffer containing 0.1% Triton X-100 and 0.2% bovine serum albumin in PBS. The cells were washed in PBS after each step and mounted using […] mounting medium supplemented with DAPI (Vector Laboratories Inc., Burlingame, Calif.). The slides were allowed to set for at least 4 hours before confocal images were acquired using a Zeiss LSM 510 inverted confocal laser scanning microscope operated with Zeiss LSM 510 software. Image analysis was performed using ImageJ (NIH) software.

For the compound `Cc1c(C)c2c(c(C)c1O)CC[C@@](C)(CCCC(C)C)O2` [α-VE5, (R)-2,5,7,8-tetramethyl-2-(4-methylpentyl)-chroman-6-ol], the concentration for half-maximal inhibition (IC50) was ~50 µM in test [1] and 20 µM in the test with LNCaP cells. The dissociation constant Kd in test [2] is 19.3 ± 0.6 µM; in test [3], 3.1 ± 0.3 µM; in test [4], 26.6 ± 1 µM. Also, the “cells with membrane localization of Akt” value in test [5] came out at 65.0±8.9%.
Consider `Cc1c(O)cc2c(c1C)O[C@](C)(CCCC(C)C)CC2` [γ-VE5, (R)-2,7,8-trimethyl-2-(4-methylpentyl)-chroman-6-ol], for which the IC50 in test [1] is ~40 µM; in the test on LNCaP cells (24 h), 12 µM. The figures for the Kd in test [2], in test [3] and in test [4] were 12.4 ± 0.1 µM, 0.7 ± 0.1 µM and 18.7 ± 4.5 µM, respectively. In test [5], the “cells with membrane localization of Akt” value was found to be 71.4±2.5%.

(Values after patent US20140031388A1, “AKT INACTIVATION BY TOCOPHERYL DERIVATIVES” (priority 2012, published 2014).)
